How the values were obtained:
Assay type in all cases: cell-based, human
[1] = system: p-ERK in PC-3 cells; assay: Immunoblot of ERK phosphorylation; conditions: 24 h
Procedure: (§1) The whole-cell lysates were prepared as described previously in immunoprecipitation (IP) buffer containing 50 mM Tris-HCl (pH 8.0), 150 mM NaCl, 5 mM EDTA, and 1% Triton X-100. Protein aliquots of 500 μg were then incubated overnight at 4°C using 2 μg of antibody directed against AR. The Protein A-Cl Agarose beads were then added and further incubated for 6 h at 4°C. The immunoprecipitates were washed four times with the IP buffer and the immunocomplexes were recovered by boiling in SDS sample buffer. Finally the western blot was carried out using anti-AR, anti-SRC-1 and anti-GRIP-1 antibodies (Santa Cruz, CA, USA). For western blot analysis, the cell lysates were prepared after harvesting them in lysis buffer. About 40 μg of total protein was electrophoresed by 12% SDS-PAGE, and the western blotting was carried out using standard protocol. In brief, the analyzed proteins were transferred to nylon membranes. The blots were then blocked with TBST buffer (20 mM Tris-Cl, pH 7.5, 150 mM sodium chloride, 0.05% Tween-20) containing 5% skim milk powder. They were then washed with TBST buffer and incubated overnight at 4°C with the same buffer containing appropriate amounts of primary antibodies: caspase-3, Bax, Bcl-2, Akt, p-Akt, ERK, p-ERK, AR, SRC-1, GRIP-1 (1∶500) and β-actin (1∶1000). The blots were then washed and incubated with anti-rabbit secondary antibody (1∶20,000) conjugated with horseradish peroxidase (HRP). Color development was performed in the dark by using an ECL kit (Amersham, GE Healthcare, Buckinghamshire, UK). The developed blots were subjected to densitometric analysis by ImageJ 1.43 software (NIH, USA) using β-actin as internal control.
The siRNAs against human Akt and ERK and control siRNA were purchased commercially from Santa Cruz Biotechnology (USA). The LNCaP and PC-3 PCa cells were transfected with siRNAs (at a final concentration of 100 nM) using polyfect transfection reagent (Qiagen, CA, USA) according to manufacturer’s instructions. After 24 h of transfection, the cells were washed properly and replaced with fresh medium. The cells were then treated with 20 μM conjugate for 24 h, and finally protein lysates were prepared on completion of treatment. The levels of p-Akt, p-ERK and cleaved caspase-3 expressions were detected by Western blot analysis.

[2] = system: caspase-3 expression in LNCaP cells; assay: Immunoblot analysis of apoptotic markers; conditions: highest dose (40 μM), immunoblot densitometry
Procedure: as §1

[3] = system: caspase-3 expression in PC-3 cells; assay: Immunoblot analysis of apoptotic markers; conditions: PC-3, highest dose (40 μM), immunoblot densitometry
Procedure: as §1

[4] = system: AR gene expression in LNCaP cells; assay: RT-PCR of AR expression; conditions: for reduction of DHT induced AR transcription: 10 nM DHT
Procedure: Total RNA was extracted from the treated cells using RNA isolation kit obtained from Genei (Bangalore, India). The extracted RNA samples were then quantified and equal amount of the individual treatments was transcribed with the help of an RT - PCR kit from Genei (Bangalore, India) according to the manufacturer’s instruction. PCR was performed by denaturing at 94°C for 60 s, annealing at various temperatures (depending on primer pairs used) for 45 s and extension at 72°C for 2 min followed by the number of cycles for amplification. Primers for Bcl-2, Bcl-xL, Bax, AR and β-Actin were designed with the help of Primer 3 software and standardized in the laboratory. The PCR products were then separated on 2% agarose gel and visualized in a gel documentation system (Bio Rad, USA). The intensity of the bands on agarose gels were analyzed using ImageJ 1.43 software (NIH, USA) and normalized with respect to β-actin PCR products. Each of the RT-PCR was carried out three times. Table S1 presents the primer sequence, product size, annealing temperature, and number of cycles used for all primers.

[5] = system: LNCaP cells; assay: MTT cell death with/without p53 inhibitor PFT-α; conditions: 20 and 40 μM conjugate 24 h, 20 μM PFT-α pre-treatment
Description: Since there was no significant difference in the number of apoptotic cells between conjugate treated LNCaP (wild type p53) and PC-3 (p53 null) cells (p<0.05), it was intriguing to check if p53 has any role in conjugate induced apoptosis of PCa cells. For this study we employed a pharmacological approach using specific wild type p53 inhibitor, pifithrin-α (PFT-α). PFT-α is a small molecule that binds to the DNA binding domain of p53, thereby inhibiting its transcriptional activity. For our experiment the LNCaP cells were pre-treated with 20 μM PFT-α for 2 h prior to the addition of 20 and 40 μM of conjugate for next 24 h. Subsequently the drug treated cells were used to check caspase-3 activity and cell death by immunoblot analysis (Fig. 4A) and MTT assay (Fig. 4B) respectively. […] Next we determined the effect of p53-inhibition on conjugate induced cell death by using MTT assay.

## COc1cc(/C=C/c2ccc(O)c(/C=N/NC(N)=S)c2)cc(OC)c1 [conjugate, Pterostilbene-isothiocyanate conjugate]
[1]; PC-3, 20 μM
  reduction in level of p-ERK: 1.3 folds
[1]; PC-3, 40 μM
  reduction in level of p-ERK: 1.7 folds
[2]
  enhancement of caspase-3 expression: about 8.5 folds
[3]
  enhancement of caspase-3 expression: ~6 folds
[4]; 10 μM
  reduction of DHT induced AR transcription: about 1.2 fold
[4]; 20 μM
  reduction of DHT induced AR transcription: ~1.3 fold
[4]; 40 μM
  reduction of DHT induced AR transcription: ~1.4 fold
[4]; below 40 μM, absence of 10 nM DHT, RT-PCR
  effect on expression of AR gene: no significant effects
[5]
  cell death with vs without PFT-α: did not differ significantly

From publication PMC3974779, “Pterostilbene-Isothiocyanate Conjugate Suppresses Growth of Prostate Cancer Cells Irrespective of Androgen Receptor Status” (PLoS ONE, 2014)
